# Values quoted from earlier work, collected in patent publication EP4257117A1, “SUSTAINED-RELEASE PHARMACEUTICAL COMPOSITION OF FULVESTRANT AND METHOD FOR PREPARING SAME” (Samyang Holdings Corporation, priority 2020, dated 2022).
# Where two headings read alike, the source gives them in different places.
# How the values were obtained:
# [1] = according to the prescription of Faslodex Injection
# [2] = in pure water, according to FDA data
structure (smiles),measurement,setting,value
"C[C@]12CC[C@@H]3c4ccc(O)cc4C[C@@H](CCCCCCCCC[S+]([O-])CCCC(F)(F)C(F)(F)F)[C@H]3[C@@H]1CC[C@@H]2O (stereo partly drawn) [Fulvestrant, 7-alpha-[9-(4,4,5,5,5-pentafluoropentylsulphinyl)nonyl]estra-1,3,5-(10)-triene-3,17beta-diol]",saturation solubility of Fulvestrant,[1]; at room temperature,about 90 mg/mL
same,saturation solubility of Fulvestrant,[1]; in refrigerated storage,about 65 mg/mL
same,solubility in aqueous solution,[2],practically insoluble
